Data taken from patent US20180099931A1 (AbbVie S.à.r.l., priority 2016, published 2018).
Where two headings read alike, the source gives them in different places.

Target: T1, F508delCFTR (Homo sapiens, UniProt P13569, DEL508-508)
T1 construct: expressed in transfected cells; host or cells: CFBE41o- human lung-derived epithelial cells (CFBE4lo-F508delCFTR-HRP), doxycycline-inducible
Assay: Cell Surface Expression-Horse Radish Peroxidase (CSE-HRP) Assay;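 as to Maximum % activity (with co-corrector): co-corrector and positive control are both the same reference corrector at 2 µM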;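 as to Maximum % activity (without co-corrector): percent of the 2 µM on-plate positive control corrector response above DMSO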
Type: cell-based
Settings: for Maximum % activity (with co-corrector) / Emax: maximum at any tested concentration, normalized to on-plate positive control; for Emax: read-out: Maximum % activity (without co-corrector)

[1] = test compound without co-corrector, read-out: EC50 (without co-corrector)
[2] = with co-corrector (2 μM of 3-[(2R,4R)-4-({[1-(2,2-difluoro-1,3-benzodioxol-5-yl)cyclopropyl]carbonyl}amino)-7-methoxy-3,4-dihydro-2H-chromen-2-yl]benzoic acid), read-out: EC50 (with co-corrector)
[3] = test compound without co-corrector
[4] = with co-corrector (2 μM of 3-[(2R,4R)-4-({[1-(2,2-difluoro-1,3-benzodioxol-5-yl)cyclopropyl]carbonyl}amino)-7-methoxy-3,4-dihydro-2H-chromen-2-yl]benzoic acid)
[5] = CSE-HRP, test compound without co-corrector, read-out: EC50 (without co-corrector)
[6] = CSE-HRP, with co-corrector (2 μM of 3-[(2R,4R)-4-({[1-(2,2-difluoro-1,3-benzodioxol-5-yl)cyclopropyl]carbonyl}amino)-7-methoxy-3,4-dihydro-2H-chromen-2-yl]benzoic acid), read-out: EC50 (with co-corrector)
[7] = CSE-HRP, with co-corrector (2 μM)

T1 sequence (P13569 with tags, fused parts or gaps DEL508-508): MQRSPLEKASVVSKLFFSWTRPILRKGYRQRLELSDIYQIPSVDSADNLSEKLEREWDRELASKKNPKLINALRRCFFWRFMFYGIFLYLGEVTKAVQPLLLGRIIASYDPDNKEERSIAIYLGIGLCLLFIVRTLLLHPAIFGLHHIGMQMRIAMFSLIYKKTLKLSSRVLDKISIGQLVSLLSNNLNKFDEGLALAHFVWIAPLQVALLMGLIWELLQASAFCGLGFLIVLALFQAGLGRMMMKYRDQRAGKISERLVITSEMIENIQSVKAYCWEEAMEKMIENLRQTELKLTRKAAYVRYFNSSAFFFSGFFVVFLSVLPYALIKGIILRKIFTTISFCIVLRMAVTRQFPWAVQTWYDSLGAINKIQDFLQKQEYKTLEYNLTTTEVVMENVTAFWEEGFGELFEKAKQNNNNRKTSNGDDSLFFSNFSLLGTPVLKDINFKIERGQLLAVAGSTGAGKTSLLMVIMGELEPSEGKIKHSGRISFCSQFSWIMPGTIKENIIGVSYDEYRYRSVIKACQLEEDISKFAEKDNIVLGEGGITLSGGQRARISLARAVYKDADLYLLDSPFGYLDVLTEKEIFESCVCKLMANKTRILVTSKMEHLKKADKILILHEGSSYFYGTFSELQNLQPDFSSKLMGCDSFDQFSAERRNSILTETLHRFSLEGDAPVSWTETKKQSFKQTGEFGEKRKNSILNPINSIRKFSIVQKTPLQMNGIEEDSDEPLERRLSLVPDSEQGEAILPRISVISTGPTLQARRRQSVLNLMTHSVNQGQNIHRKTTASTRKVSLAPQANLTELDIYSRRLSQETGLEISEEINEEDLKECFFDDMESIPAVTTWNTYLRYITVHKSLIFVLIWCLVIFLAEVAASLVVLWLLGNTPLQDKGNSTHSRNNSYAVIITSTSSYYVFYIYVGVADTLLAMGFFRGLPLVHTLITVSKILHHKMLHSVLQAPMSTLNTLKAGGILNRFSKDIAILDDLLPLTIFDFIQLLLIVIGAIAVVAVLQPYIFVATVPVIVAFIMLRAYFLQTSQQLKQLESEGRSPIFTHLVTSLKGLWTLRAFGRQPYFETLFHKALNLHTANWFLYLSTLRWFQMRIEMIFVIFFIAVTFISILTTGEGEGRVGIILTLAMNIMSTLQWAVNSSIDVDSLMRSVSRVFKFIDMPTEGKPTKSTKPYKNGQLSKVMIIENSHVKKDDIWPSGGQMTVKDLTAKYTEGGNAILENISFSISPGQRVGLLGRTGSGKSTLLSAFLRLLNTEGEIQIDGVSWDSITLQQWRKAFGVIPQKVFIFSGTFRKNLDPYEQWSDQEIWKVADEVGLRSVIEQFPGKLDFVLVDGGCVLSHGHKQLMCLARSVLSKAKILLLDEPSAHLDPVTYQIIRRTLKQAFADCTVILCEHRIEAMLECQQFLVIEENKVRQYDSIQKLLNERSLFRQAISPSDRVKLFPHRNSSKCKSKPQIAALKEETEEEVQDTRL

EC50 [1]	EC50 [2]	Maximum % activity (with co-corrector) (with co-corrector (2 μM))	Emax (without co-corrector)	Emax [3]	Maximum % activity (with co-corrector) [4]	EC50 [5]	EC50 [6]	Maximum % activity (with co-corrector) [7]	Emax (CSE-HRP, without co-corrector)	Structure (SMILES)
< 1000 nM	< 1000 nM	+++ (≥350)	100 to 200%	–	–	–	–	–	–	COc1ncc(C(C)c2ccccc2)cc1CN[C@H]1[C@H](C(C)(C)C)[C@@H](C(=O)O)N(C(=O)C2CCCCC2)[C@H]1c1ccccc1 (some centres unmarked) [Example I-75]
1000 to 10000 nM	1000 to 10000 nM	–	–	< 100%	++ (≥150 and <350)	–	–	–	–	COc1cc(OC)c(CN[C@@H]2[C@@H](C(C)(C)C)[C@H](C(=O)O)N(C(=O)C3CCCCC3)[C@@H]2c2ccccc2)cc1Cl (racemic) [III-20]
1000 to 10000 nM	1000 to 10000 nM	–	–	< 100%	+++ (≥350)	–	–	–	–	COc1cccc([C@H]2[C@@H](NCc3cc(C(F)(F)F)ccc3OC)[C@H](C(C)(C)C)[C@@H](C(=O)O)N2C(=O)C2CCCOC2)n1 (mixture of isomers) [III-69]
1000 to 10000 nM	1000 to 10000 nM	+++ (≥350)	100 to 200%	–	–	–	–	–	–	COc1ncc(Cc2cccc(C#N)c2)cc1CN[C@H]1[C@H](C(C)(C)C)[C@@H](C(=O)O)N(C(=O)C2CCCCC2)[C@H]1c1ccccc1 [Example I-77]
–	–	–	–	–	–	1000 to 10000 nM	1000 to 10000 nM	+++ (≥350)	> 200%	COc1ccc(C(C)(C)C)cc1CN[C@H]1[C@H](C(C)(C)C)[C@@H](C(=O)O)N(C(=O)[C@@H]2OCC[C@@H]2C)[C@H]1c1ccccc1 (relative stereo) [II-268]
–	–	–	–	–	–	1000 to 10000 nM	1000 to 10000 nM	+++ (≥350)	100 to 200%	COc1ccc(C(C)(C)C)cc1CN[C@H]1[C@H](C(C)(C)C)[C@@H](C(=O)O)N(C(=O)CC2CCOCC2)[C@H]1c1ccccc1 [II-162]
1000 to 10000 nM	1000 to 10000 nM	+++ (≥350)	> 200%	–	–	–	–	–	–	COc1ccc(C(F)(F)F)cc1CN[C@H]1[C@H](C(C)(C)C)[C@@H](C(=O)O)N(C(=O)[C@@H]2CCC[C@@H](OC)C2)[C@H]1c1ccccc1 [Example I-59]
1000 to 10000 nM	1000 to 10000 nM	–	–	100 to 200%	+++ (≥350)	–	–	–	–	COc1ccc(OC(F)(F)F)cc1CN[C@H]1[C@H](C(C)(C)C)[C@@H](C(=O)O)N(C(=O)[C@H](C)c2ccccc2)[C@H]1c1cccnc1OC [II-542]
–	–	–	–	–	–	< 1000 nM	< 1000 nM	+++ (≥350)	> 200%	COc1ccc(C2CCCCC2)cc1CN[C@H]1[C@H](C(C)(C)C)[C@@H](C(=O)O)N(C(=O)C2CCCCC2)[C@H]1c1ccccc1 [II-192]
–	–	–	–	–	–	1000 to 10000 nM	< 1000 nM	+++ (≥350)	> 200%	COc1ccc(C2(C)CCC2)cc1CN[C@H]1[C@H](C(C)(C)C)[C@@H](C(=O)O)N(C(=O)[C@@H]2CCCO2)[C@H]1c1ccccc1Br [Example I-295]
1000 to 10000 nM	1000 to 10000 nM	+++ (≥350)	> 200%	–	–	–	–	–	–	COc1ccc(C(F)(F)F)cc1CN[C@@H]1[C@@H](C(C)(C)C)[C@H](C(=O)O)N(C(=O)OC(C)C)[C@@H]1c1cccnc1N(C)C (racemic) [Example I-29]
–	–	–	–	–	–	1000 to 10000 nM	1000 to 10000 nM	+++ (≥350)	> 200%	COc1ccc(C(F)(F)F)cc1CN[C@H]1[C@H](C(C)(C)C)[C@@H](C(=O)O)N(C(=O)OC(C)C)[C@H]1c1cccc(Cl)c1 [Example I-252]
1000 to 10000 nM	1000 to 10000 nM	+++ (≥350)	100 to 200%	–	–	–	–	–	–	COc1ccc(C(C)(C)C)cc1CN[C@H]1[C@H](C(C)(C)C)[C@@H](C(=O)O)N(C(=O)OC(C)C)[C@H]1c1cccnc1OC(F)F [Example I-227]
–	–	–	–	–	–	1000 to 10000 nM	1000 to 10000 nM	+++ (≥350)	100 to 200%	COc1ncc(F)cc1CN[C@@H]1[C@@H](C(C)(C)C)[C@H](C(=O)O)N(C(=O)C2CCCCC2)[C@@H]1c1ccccc1 (racemic) [II-30]
1000 to 10000 nM	1000 to 10000 nM	++ (≥150 and <350)	–	< 100%	–	–	–	–	–	CC(C)(C)[C@H]1[C@H](Nc2cncc3ccccc23)[C@H](c2ccccc2)N(C(=O)C2CCCCC2)[C@@H]1C(=O)O [III-162]
1000 to 10000 nM	1000 to 10000 nM	+++ (≥350)	> 200%	–	–	–	–	–	–	COc1ccc(C(C)(C)C)cc1CN[C@H]1[C@H](C(C)(C)C)[C@@H](C(=O)O)N(C(=O)C(OC)C2CC2)[C@H]1c1ccccc1 (single isomer, unassigned) [Example I-95]
–	–	–	–	–	–	1000 to 10000 nM	< 1000 nM	+++ (≥350)	> 200%	COc1ccc(Cc2ccccc2)cc1CN[C@H]1[C@H](C(C)(C)C)[C@@H](C(=O)O)N(C(=O)C2CCCCC2)[C@H]1c1ccccc1 [II-191]
< 1000 nM	< 1000 nM	–	–	> 200%	+++ (≥350)	–	–	–	–	COc1ccc(C(C)(C)C)cc1CN[C@H]1[C@H](C(C)(C)C)[C@@H](C(=O)O)N(C(=O)c2ccc(Oc3ccccn3)cc2)[C@H]1c1cccnc1N(C)C [II-466]
> 10000 nM	> 10000 nM	+ (<150)	< 100%	–	–	–	–	–	–	COc1ccc(CN(C)C)cc1CN[C@H]1[C@H](C(C)(C)C)[C@@H](C(=O)O)N(C(=O)C2CCCCC2)[C@H]1c1ccccc1 [Example I-85]
1000 to 10000 nM	< 1000 nM	+++ (≥350)	> 200%	–	–	–	–	–	–	COc1ccc(C(C)(C)C)cc1CN[C@H]1[C@H](C(C)(C)C)[C@@H](C(=O)O)N(C(=O)[C@H]2COc3ccccc3O2)[C@H]1c1ccccc1 [Example I-167]
–	–	–	–	–	–	1000 to 10000 nM	1000 to 10000 nM	+++ (≥350)	100 to 200%	COc1cc(C(F)(F)F)ccc1CN[C@H]1[C@H](C(C)(C)C)[C@@H](C(=O)O)N(C(=O)[C@H](OC)c2ccccc2)[C@H]1c1cccnc1N(C)C (racemic) [II-48]
1000 to 10000 nM	1000 to 10000 nM	–	–	< 100%	++ (≥150 and <350)	–	–	–	–	COc1ccc(C(C)(C)C)cc1CN[C@@H]1[C@@H](C(C)(C)C)[C@@H](C(=O)O)N(C(=O)C2CCCCC2)[C@H]1c1ccccc1 [II-412]
< 1000 nM	< 1000 nM	+++ (≥350)	> 200%	–	–	–	–	–	–	COc1ncc(C2CCC2)cc1CN[C@H]1[C@H](C(C)(C)C)[C@@H](C(=O)O)N(C(=O)[C@@H]2CCCCO2)[C@H]1c1ccccc1C(C)C [Example 73, (2S,3S,4S,5S)-3-tert-butyl-4-{[(5-cyclobutyl-2-methoxypyridin-3-yl)methyl]amino}-1-[(2S)-oxane-2-carbonyl]-5-[2-(propan-2-yl)phenyl]pyrrolidine-2-carboxylic acid]
> 10000 nM	1000 to 10000 nM	++ (≥150 and <350)	–	< 100%	–	–	–	–	–	COc1cc(C(F)(F)F)ccc1CN[C@@H]1[C@@H](C(C)(C)C)[C@H](C(=O)O)N(C(=O)[C@H]2CCCCO2)[C@@H]1c1ccccc1 [III-117]
> 10000 nM	1000 to 10000 nM	–	–	< 100%	++ (≥150 and <350)	–	–	–	–	CC(C)(C)[C@@H]1[C@@H](Nc2cc(C(F)(F)F)cc[n+]2[O-])[C@@H](c2ccccc2)N(C(=O)C2CCCCC2)[C@H]1C(=O)O (racemic) [III-31]
1000 to 10000 nM	1000 to 10000 nM	+++ (≥350)	100 to 200%	–	–	–	–	–	–	COc1cc(C(F)(F)F)ccc1CN[C@H]1[C@H](C(C)(C)C)[C@@H](C(=O)O)N(C(=O)OC(C)C)[C@H]1c1cccnc1OC(C)C [Example 81, (2S,3S,4S,5S)-3-tert-butyl-4-({[2-methoxy-4-(trifluoromethyl)phenyl]methyl}amino)-1-{[(propan-2-yl)oxy]carbonyl}-5-{2-[(propan-2-yl)oxy]pyridin-3-yl}pyrrolidine-2-carboxylic acid]
–	–	–	–	–	–	< 1000 nM	< 1000 nM	+++ (≥350)	> 200%	COc1ccc(C2CCCCC2)cc1CN[C@H]1[C@H](C(C)(C)OC)[C@@H](C(=O)O)N(C(=O)C2CCCCC2)[C@H]1c1ccccc1 [II-257]
1000 to 10000 nM	1000 to 10000 nM	+++ (≥350)	100 to 200%	–	–	–	–	–	–	COc1ccc(Br)nc1CN[C@H]1[C@H](C(C)(C)C)[C@@H](C(=O)O)N(C(=O)C2CCCCC2)[C@H]1c1ccccc1 [Example I-134]
1000 to 10000 nM	1000 to 10000 nM	+++ (≥350)	< 100%	–	–	–	–	–	–	Cc1cc(C(F)(F)F)cc(N[C@@H]2[C@@H](C(C)(C)C)[C@H](C(=O)O)N(C(=O)C3CCCCC3)[C@@H]2c2ccccc2)n1 (racemic) [Example 1, rac-(2R,3R,4R,5R)-3-tert-butyl-1-(cyclohexanecarbonyl)-4-{[6-methyl-4-(trifluoromethyl)pyridin-2-yl]amino}-5-phenylpyrrolidine-2-carboxylic acid]
